In patent publication US20090311185A1, “Peptide having antianxiety activity and screening method therefor” (priority 2005, published 2009):
“Also recorded” adds a separate entry of the source. Bridges are numbered along the chain shown (N, C = ends). Roman numbers before positions name the chains, in order. Where no end group is shown, it is not given here.

How the values were obtained:
rats [1] = assay: Defensive burying test after intracerebroventricular administration; type: in vivo, rat; settings: F344 male rats, 15 min test, vs vehicle
Experimental: The influence of relaxin-3 on an anxiety activity was determined using a defensive burying test (Treit et al., Pharmacology Biochemistry and Behavior, 15, p. 619-626, 1981).
F344 male rats (7 weeks of age; Japan Charles River) were fed foods for experimental animals (MF; Oriental Yeast) to be adapted. The rats (150 to 200 g) received cannulation into the lateral cerebroventricle under anesthesia. Administration experiments of relaxin-3 were carried out a week or later.
The tested rats were placed and left in a testing chamber, which floor was covered with a bedding material to a height of 5 cm, for 30 minutes or more once a day from 3 days before the defensive burying test, so as to allow the tested rats to habituate to the testing environment. The rats were habituated to the environment without the stimulating electrode until the test. […]
On test day, the tested rats were placed in a test chamber (with bedding material to a height of 5 cm) with a stimulating electrode, so as to start an experiment. […] All behaviors of the tested rats were recorded using a videocamera, and the burying behavior time (burying time (sec.)) within 15 minutes from the first electrical shock was measured using the recorded tape. […]

rats [2] = assay: Elevated plus-maze test after intracerebroventricular administration (rats); type: in vivo, rat; settings: Wistar male rats, 5 min test, vs vehicle
Experimental: The influence of relaxin-3 on anxiety activity was determined using an elevated plus-maze.
Wistar male rats (9 weeks of age; Japan Charles River) were received cannulation into the lateral cerebroventricle under anesthesia. The rats were then fed, and administration experiments of relaxin-3 were carried out a week or later.
The human relaxin-3 (Peptide Institute, Inc.) was dissolved in physiological saline and was diluted to a final concentration of 10 pmol/rat or 50 pmol/rat.
The tested rats with guide cannula implantation were administered with 5 μL each of the human relaxin-3 administration solution (10 pmol/rat, N=8; or 50 pmol/rat, N=7), or vehicle group (physiological saline, N=7) at a rate of 2.5 μL per minute using an infusion pump.
Antianxiety activities were measured using an elevated plus-maze. The maze was raised 50 cm above the floor and included four arms arranged in the form of a plus sign (+) spread from the central platform (10 cm×10 cm) positioned at the center. Two opposite arms (50 cm long and 10 cm wide) are open arms, and the other two opposite arms (50 cm long, 10 cm wide with walls 40 cm high) were closed arms. Lighting was arranged so as to set the luminance at the floor in the open arms was 60 to 80 lux. A rat 10 minutes after the intracerebroventricular administration was placed in the center of the plus-maze so as to face one of the open arms, and the test was carried out for 5 minutes. The test was conducted only within a period from 11:00 to 16:00. The behaviors of rats were recorded by a video, and the number of entries into the open and closed arms and the time spent in the open and closed arms were measured on each mouse by analyzing the video after the completion of the test. FIGS. 7 and 8 show the total number of entries into open and closed arms and the percentage of time spent in open arms within 5 minutes, respectively. To compare among the human relaxin-3 administration groups and the vehicle group, a significant difference test by the t-test was conducted.

mice = assay: Elevated plus-maze test after intracerebroventricular administration (mice); type: in vivo; settings: BALB/c male mice, 1 nmol/mouse intracerebroventricular, 5 min test, vs vehicle
Experimental: The influence of relaxin-3 on anxiety activity was determined using an elevated plus-maze. An elevated plus-maze test is a behavioral pharmacological test which is widely used in the measurement of anxiety level of experimental animals such as rats or mice, or for the evaluation of drug efficacies of antianxiety drugs, using exploring behaviors in open arms, such as the time spent in open arms, as an index.
BALB/c male mice (7 weeks of age; Japan Charles River) were received cannulation into the lateral cerebroventricle under anesthesia. The mice were then fed, and administration experiments of relaxin-3 were carried out a week or later.
The human relaxin-3 (Peptide Institute, Inc.) was dissolved in physiological saline and was diluted to a final concentration of 1 nmol/mouse.
The tested mice with guide cannula implantation were intracerebroventricularly administered with each 2 μL of the human relaxin-3 administration solution (N=8) or a vehicle solution (physiological saline) (N=9) at a rate of 1 μL per minute using an infusion pump.
Antianxiety activities were measured using an elevated plus-maze. […] The behaviors of mice were recorded by a video, and the number of entries into the open and closed arms and the time spent in the open and closed arms were measured on each mouse by analyzing the video after the completion of the test. […]

SALPR = biological target: T1, SALPR (Homo sapiens, UniProt Q9NSD7); assay: Suppression of forskolin-increased transcription activity (CRE-PLAP reporter) in SALPR-SE302 cells; type: cell-based; settings: forskolin 1 μmol/L, 1 day incubation
T1 construct: the area encoding SALPR is known to be from position 1 to position 1407 (1410 base pairs, 469 amino acid residues); expressed in transfected cells; host or cells: SE302 cells (HEK293 clone carrying the CRE-PLAP reporter), transduced with retrovirus vector pBabeCL(SALPR)IH and selected with hygromycin
T1 sequence (Q9NSD7 1-469): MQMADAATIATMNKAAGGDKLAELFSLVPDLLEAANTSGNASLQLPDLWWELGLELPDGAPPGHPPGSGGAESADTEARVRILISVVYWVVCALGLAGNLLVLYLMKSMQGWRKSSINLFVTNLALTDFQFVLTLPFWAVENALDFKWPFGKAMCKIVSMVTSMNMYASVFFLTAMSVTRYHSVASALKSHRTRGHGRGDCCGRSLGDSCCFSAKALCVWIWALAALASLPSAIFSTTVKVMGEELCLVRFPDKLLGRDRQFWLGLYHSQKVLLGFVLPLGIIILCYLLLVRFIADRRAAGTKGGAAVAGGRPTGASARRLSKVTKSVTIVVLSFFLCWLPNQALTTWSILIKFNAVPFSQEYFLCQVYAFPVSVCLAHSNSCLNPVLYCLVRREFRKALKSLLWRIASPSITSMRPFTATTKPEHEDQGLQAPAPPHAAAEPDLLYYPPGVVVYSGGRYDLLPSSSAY
Experimental: SE302 cells (3×10^3) constructed in Example 5 above were cultured in a 96-well plate (Asahi Techno Glass) using 100 μl of DMEM (Sigma) supplemented with […] fetal bovine serum (FBS) and PS (hereinafter called “culture medium”). On the following day, the retrovirus vector prepared in Example 4 was appropriately diluted and a 100-μl portion of the dilution and polybrene (also called as hexadimethrine bromide, Sigma) prepared in the culture medium (at a final concentration of 8 μg/ml) were added to the SE302 cells. On the following day, the culture medium was replaced by 200 μl of a culture medium supplemented with 500 μg/ml hygromycin (Invitrogen) and then incubation was continued. The SE302 cells for SALPR gene transfer grown under these conditions (hereinafter called “SALPR-SE302 cells”) were appropriately subcultured for experimental use.
SALPR-SE302 cells constructed in Example 6 above were suspended in a medium for measuring transcription activity (DMEM supplemented with 10% FBS (inactivated at 65° C. for 30 minutes)) and then inoculated in a 96-well plate (Beckton Dickinson) at 1×10^4 cells/well. […]

THP-1 cells = THP-1 cells of the immune system; WO 01/81562, Bathgate et al. 2002; cited from earlier work
[3] = 50 pmol/rat intracerebroventricular

Substance | burying behavior time (rats [1]; 0.05 nmol/rat intracerebroventricular) | burying behavior time (rats [1]; 1 nmol/rat intracerebroventricular, Dunnett P<0.05) | total number of entries into open and closed arms (rats [2]; 10 pmol/rat intracerebroventricular) | time spent in open arms (rats [2]; 10 pmol/rat intracerebroventricular, P<0.05) | time spent in open arms (rats [2]; [3]) | total number of entries into open and closed arms (rats [2]; [3]) | total number of entries into open and closed arms (mice) | time spent in open arms (mice; P<0.05) | transcription activity increased by addition of forskolin (alkaline phosphatase reporter) (SALPR) | intracellular cyclic AMP (cAMP) (THP-1 cells)
human relaxin-3: Synthetic human relaxin-3: B-chain SEQ ID NO: 5 and A-chain SEQ ID NO: 6 bonded through disulfide bonds (beta RAAPYGVRLCGREFIRAVIFTCGGSRW; alpha DVLAGLSSSCCKWGCSKSEISSLC; disulfide I:10-II:11, I:22-II:24, II:10-II:15; not fully specified; ends not checked; listed as Homo sapiens) | decreased | significant decrease | no difference | statistically significantly high | increase | no difference | no difference | significant increase |  | 
insulin [reference compound] |  |  |  |  |  |  |  |  | not affected | 
relaxin-3: Relaxin-3 (Phoenix Pharmaceuticals) used in the SALPR reporter assay; mature two-chain polypeptide also known as INSL7 |  |  |  |  |  |  |  |  | suppresses; also recorded: specific dose-dependent suppression | increase
